# Test results: ChEMBL document CHEMBL1126858, “Synthesis of (R,S)-trans-8-hydroxy-2-[N-n-propyl-N-(3'-iodo-2'-propenyl)amino]tetral in (trans-8-OH-PIPAT): a new 5-HT1A receptor ligand” (J Med Chem, 1993)
# pKi: −log10 of the molar value.
# Assays:
# [1] = target: T1, 5-hydroxytryptamine receptor 1A (Rattus norvegicus, UniProt P19327); test: Binding affinity towards 5-hydroxytryptamine 1A receptor by the displacement of [125I]trans-8-OH-PIPAT in membrane homogenates of hippocampal tissue of rat brain; assay type: tissue-based, Hippocampus
# T1 sequence (P19327 whole entry): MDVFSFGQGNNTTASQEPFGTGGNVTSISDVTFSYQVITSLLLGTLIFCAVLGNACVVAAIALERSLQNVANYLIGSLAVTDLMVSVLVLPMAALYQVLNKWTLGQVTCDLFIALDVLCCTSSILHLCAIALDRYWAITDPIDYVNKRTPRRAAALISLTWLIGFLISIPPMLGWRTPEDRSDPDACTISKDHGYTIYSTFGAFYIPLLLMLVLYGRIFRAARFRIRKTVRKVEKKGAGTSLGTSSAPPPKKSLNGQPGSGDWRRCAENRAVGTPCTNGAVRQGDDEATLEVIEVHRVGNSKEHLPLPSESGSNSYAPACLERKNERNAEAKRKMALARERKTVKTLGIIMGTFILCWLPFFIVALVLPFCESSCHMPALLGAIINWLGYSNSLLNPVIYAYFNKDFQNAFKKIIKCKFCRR
# [2] = Hill coefficient of the compound; assay type: ADME
# D(3) dopamine receptor = D(3) dopamine receptor (Rattus norvegicus, UniProt P19020); test: Inhibitory activity against [125I]- NCQ298 binding to dopamine receptor D3 in Sf 9 cells; assay type: cell-based
# Chain of D(3) dopamine receptor (P19020 whole entry): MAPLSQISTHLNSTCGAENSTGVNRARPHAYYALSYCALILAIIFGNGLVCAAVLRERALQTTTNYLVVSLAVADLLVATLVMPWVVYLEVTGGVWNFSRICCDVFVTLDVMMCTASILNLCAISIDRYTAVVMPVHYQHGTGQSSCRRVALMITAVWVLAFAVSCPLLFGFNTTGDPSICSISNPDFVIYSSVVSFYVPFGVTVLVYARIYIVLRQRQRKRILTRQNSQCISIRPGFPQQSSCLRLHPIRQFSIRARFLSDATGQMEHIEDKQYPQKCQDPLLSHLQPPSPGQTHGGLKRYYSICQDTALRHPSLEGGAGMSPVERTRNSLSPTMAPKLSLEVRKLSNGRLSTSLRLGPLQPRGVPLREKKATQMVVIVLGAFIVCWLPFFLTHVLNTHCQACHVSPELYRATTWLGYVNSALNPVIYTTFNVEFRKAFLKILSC
# Rattus norvegicus = organism: Rattus norvegicus; test: Inhibitory activity against (125I)-(R,S)-trans-8-OH-PIPAT binding to the rat hippocampal homogenate; assay type: functional, Hippocampus
# D(2) dopamine receptor = D(2) dopamine receptor (Homo sapiens, UniProt P14416); test: Inhibitory activity against [125I]- NCQ298 binding to dopamine receptor D2 in Sf 9 cells; assay type: cell-based
# Chain of D(2) dopamine receptor (P14416 whole entry): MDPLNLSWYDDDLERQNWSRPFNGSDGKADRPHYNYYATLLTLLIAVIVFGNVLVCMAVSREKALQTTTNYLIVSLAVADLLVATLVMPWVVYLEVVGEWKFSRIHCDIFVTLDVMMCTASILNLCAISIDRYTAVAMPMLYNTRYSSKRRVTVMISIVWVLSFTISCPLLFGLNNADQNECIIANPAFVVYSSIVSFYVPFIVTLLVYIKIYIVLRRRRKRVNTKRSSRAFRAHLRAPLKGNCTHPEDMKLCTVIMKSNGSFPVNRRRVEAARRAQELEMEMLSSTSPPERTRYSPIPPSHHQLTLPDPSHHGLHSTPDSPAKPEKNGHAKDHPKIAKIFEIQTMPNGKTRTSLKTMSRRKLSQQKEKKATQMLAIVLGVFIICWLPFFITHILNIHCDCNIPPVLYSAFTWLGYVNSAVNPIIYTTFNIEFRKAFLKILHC
Structure (SMILES),pKi [1],Hill coefficient [2],other results
O=C(CCCN1CCC2(CC1)C(=O)NCN2c1ccccc1)c1ccc(F)cc1 [SPIPERONE],6.22,0.86,
CCCN(CCC)C1CCc2ccc(O)cc2C1 (racemic),7.14,0.82,
COc1cccc(OC)c1OCCNCC1COc2ccccc2O1 (configuration not stated),8.57,,
NCCc1ccc(O)c(O)c1 [DOPAMINE],< 5.00,,
NCCc1c[nH]c2ccc(O)cc12 [SEROTONIN],,1.04,
CC(C)NCC(O)COc1cccc2ccccc12 (racemic) [PROPRANOLOL],,0.99,
CCCN(CCC)C1CCc2cccc(O)c2C1 (racemic) [8-OH-DPAT],,0.83,pKi (D(3) dopamine receptor): 6.60; pKi (Rattus norvegicus): 9.04
CCCN(C/C=C/I)C1CCc2ccc(O)cc2C1 (racemic),,0.9,
CCCN(C/C=C/I)C1CCc2cccc(O)c2C1 (racemic),9.52,0.85,pKi (D(3) dopamine receptor): 6.90; pKi (D(2) dopamine receptor): 5.97
O=C(c1ccc(F)cc1)C1CCN(CCn2c(=O)[nH]c3ccccc3c2=O)CC1 [KETANSERIN],,1.04,
